How the values were obtained:
Assay type in all cases: physicochemical
[1] = Photostability under continuous 808 nm laser irradiation; details: PBS pH 7.4, 808 nm laser 0.8 W/cm^2, 15 min
Experimental: (§1) For the photostability study, PBS solutions (pH 7.4) of TPA-T-TQ ONPs and ICG were irradiated under 808-nm laser (0.8 W/cm^2), and the absorption spectra were measured at different time points. For the anti-photobleaching study, the temperatures of the sample solutions were recorded during five circles of heating and cooling. In one heating-cooling circle, the NIR laser first irradiated the samples for 5 min to reach a steady state, then the laser was removed and the samples were naturally cooled down to ambient temperature in 6 min.
(§2) For the RONS-stability study, two kinds of RONS were used, i.e., ONOO^− and .OH, which were prepared according to the literature. The absorption and photoluminescence spectra were recorded before and after addition of 0.4 mM of RONS. […] Then the photostability of TPA-T-TQ ONPs was evaluated along with ICG under continuous 808 nm laser irradiation (0.8 W/cm^2) by recording the apparent colors and absorption spectra after laser irradiation for different times. […]
(§3) Then, the anti-photobleaching properties of TPA-T-TQ ONPs and ICG were evaluated by alternative heating and cooling processes (the NIR laser first irradiated the samples for 5 min to heat them up, then the laser was removed, and the samples were naturally cooled down to ambient temperature in 6 min).

[2] = Anti-photobleaching study, five circles of heating-cooling; details: 100 μM, 808 nm 0.8 W/cm^2
Experimental: as §1, §3

[3] = Photothermal performance in PBS under 808 nm laser; details: PBS pH 7.4, 100 μM, 808 nm laser 0.8 W/cm^2, 5 min
Experimental: The PBS solution (pH 7.4) of TPA-T-TQ ONPs and ICG in different concentrations were continuously exposed to NIR laser of 808 nm with a power intensity of 0.8 W/cm^2 for 5 min. The temperature was measured every 20 s and stopped until the temperature nearly reached a plateau. The corresponding IR thermal images were also recorded. To evaluate the photothermal conversion property, we quantitatively measured the temperature change of TPA-T-TQ ONP solution at different concentrations as a function of 808 nm laser (0.8 W/cm^2) irradiation time. As depicted in FIG. 9B, temperature increases very fast initially, and reaches a plateau after 3 min laser irradiation. It is noted that the eventual temperature at the plateau depends on the ONP concentration. The temperature increase of ONPs and ICG solutions upon exposure to 808 nm laser irradiation was compared. […] The difference in temperature elevation of the two samples at various irradiation times can be intuitively visualized from the infrared (IR) thermal images (FIG. 9A).

[4] = RONS-stability study; details: PBS, ICG read at 780 nm
Experimental: For the RONS-stability study, two kinds of RONS were used, i.e., ONOO^− and .OH, which were prepared according to the literature. The absorption and photoluminescence spectra were recorded before and after addition of 0.4 mM of RONS. The stabilities of the contrast agents in terms of thermal and photothermal stabilities as well as photobleaching and RONS resistances are crucial for PAI/PTT applications in vivo because incorrect or misleading signals, weakened therapeutic efficacy, and harmful side effects can result if the structure of the agent is destroyed, especially in living systems. Thermogravimetric analysis (TGA) was first carried out to measure the thermal stability of TPA-T-TQ. The decomposition temperature for 5% weight loss of TPA-T-TQ was above 400° C. […] Then the photostability of TPA-T-TQ ONPs was evaluated along with ICG under continuous 808 nm laser irradiation (0.8 W/cm^2) by recording the apparent colors and absorption spectra after laser irradiation for different times. […]
Another important issue related to in vivo applications is the physiological stability against highly reactive molecules such as RONS. […] Therefore, the stability of TPA-T-TQ ONPs and ICG in the presence of two kinds of RONS, peroxynitrite (ONOO^−) and hydroxyl radical (.OH), were measured under physiological conditions. […]

[5] = Thermogravimetric analysis (TGA), thermal stability; details: heating rate 10° C./min, nitrogen atmosphere
Experimental: ^1H (400 MHz) and ^13C (100 MHz) nuclear magnetic resonance (NMR) spectra were recorded on a Bruker AV 400 spectrometer by using CDCl3 or DMSO-d6 as the solvent. High-resolution mass spectra (HRMS) were measured on a GCT premier CAB048 mass spectrometer in MALDI-TOF mode. Thermogravimetric analysis (TGA) measurement was conducted on a TA TGA Q5000 with a heating rate of 10° C./min under nitrogen atmosphere. The UV-vis-NIR absorption spectra were performed on a PerkinElmer Lambda 365 spectrophotometer. The photoluminescence (PL) spectra were conducted using a Horiba Fluorolog-3 spectrofluorometer. Dynamic light scattering (DLS) was performed on a 90 plus particle size analyzer. Transmission electron microscopy (TEM) images were obtained on a JEM-2010F transmission electron microscope with an accelerating voltage of 200 kV.
as §2

[6] = after two circles of heating-cooling

Row | SMILES | colors and absorption spectra / maximal absorption intensity after NIR light irradiation [1] | temperature elevation relative to the original value [2, 6] | temperature elevation ΔT after two circles [2, 6] | temperature elevation ΔT, original value ([2]; first heating) | temperature increase ΔT in 5 min [3] | maximal absorption intensity relative to the original value after .OH ([4]; 400 μM .OH for 1 min) | maximal absorption intensity relative to the original value after ONOO^− ([4]; 400 μM ONOO^− for 1 min) | decomposition temperature for 5% weight loss [5]
1 | CC1(C)C(/C=C/C=C/C=C/C=C2\N(CCCCS(=O)(=O)O)c3ccc4ccccc4c3C2(C)C)=[N+](CCCCS(=O)(=O)[O-])c2ccc3ccccc3c21 [ICG, indocyanine green] | nearly drops to zero | about 20% | ~10 °C | ~44 °C | ~43 °C | ~4% | about 60% | –
2 | Cc1ccc(N(c2ccc(-c3ccc(-c4c5nsnc5c(-c5ccc(-c6ccc(N(c7ccc(C)cc7)c7ccc(C(C)(C)C)cc7)cc6)s5)c5nc(-c6ccccc6)c(-c6ccccc6)nc45)s3)cc2)c2ccc(C(C)(C)C)cc2)cc1 [TPA-T-TQ, 4,4′-((6,7-Diphenyl-[1,2,5]thiadiazolo[3,4-g]quinoxaline-4,9-diyl)bis(thiophene-5,2-diyl))bis(N-(4-(tert-butyl)phenyl)-N-(p-tolyl)aniline)] | – | – | – | – | – | – | – | above 400 °C

From US11389446B2, “Theranostic agents” (THE HONG KONG UNIVERSITY OF SCIENCE AND TECHNOLOGY, priority 2017, dated 2022)
